Results as given in US4489062A, “Pharmaceutical compounds, preparation, use and intermediates therefor and their preparation” (priority 1982, dated 1984).
Where a SMILES comes first, the peptide text is derived from it. [ ]: non-standard residue; d: D form. Phe(4-NO2) = N[C@@H](Cc1ccc([N+](=O)[O-])cc1)C(=O)O

Experiments:
Type in all cases: in vivo
Male mice (CFLP strain) = assay: Hotplate test; conditions: 55° C. hotplate, 15 mins. after treatment, reaction time twice the pretreatment figure, Ex. compounds calculated as the peptide per se; for ED50: Mus musculus, sc
Excerpt: (§1) (1) Both the hotplate test (Woolfe and MacDonald, J. Pharmacol. Exp. Ther. 80:300, 1944) and the irritant-induced writhing (stretch) test (Vander Wende and Margolin, Fed. Proc. 15:494, 1956) are standard in the art for the investigation of analgesic activity. Whereas it is believed that the pain in the latter can be ameliorated either centrally or peripherally, it is thought that that induced in the hotplate test is affected only at the central level.
Male mice (CFLP strain, Hacking and Churchill) were individually placed in a copper-bottomed perspex box suspended in a water bath at 55° C. and observed for signs of discomfort such as shaking or licking the paws, the reaction time (up to a maximum of 30 secs.) being recorded. Groups of five animals then received either a test compound or saline vehicle (0.85%) control by subcutaneous injection, the test being repeated at 15 mins. after treatment. The ED50 figures for the test compounds were calculated from the number of animals having a posttreatment reaction time which was twice the pretreatment figure.

Female Cobs Wistar rats = assay: Antidiarrhoeal activity (castor oil-induced diarrhoea); conditions: calculated as the peptide per se; for ED50 (mg/kg, s.c.) antidiarrhoeal, 1.5 hrs.: 1.5 hrs. post castor oil; for ED50 (mg/kg, s.c.) antidiarrhoeal, 2.0 hrs.: 2.0 hrs. post castor oil; for ED50 (mg/kg, s.c.) antidiarrhoeal, 3.0 hrs.: 3.0 hrs. post castor oil
Procedure: Female Cobs Wistar rats (Charles River) were starved for 24 hours prior to subcutaneous administration of the test compound as a solution in 0.85% (w/w) saline and at a volume of 10 ml/kg. Fifteen minutes after the compound each rat received 1 ml. castor oil given orally and the animals were then observed for the appearance of diarrhoea.

female CD1 mice [1] = assay: Irritant-induced writhing test, phenylbenzoquinone (PBQ); conditions: s.c. 15 mins. prior to PBQ 2.5 mg/kg, Ex. compounds calculated as the peptide per se; for ED50: Mus musculus, 0.25 h
Excerpt: as §1
(§2) (i) Acetic Acid. Groups of five female CD1 mice (Charles River) received either a test compound or saline vehicle (0.85%) control by subcutaneous injection 15 mins. (unless otherwise indicated) prior to an intraperitoneal injection of 0.6% acetic acid at a dose volume of 25 ml/kg. After a further 20 mins. the writhing or stretching movements induced by the irritant were counted over a 21/2 min. period, a writhe/stretch being identified as an extension of a hindlimb accompanied by constriction of the abdomen.
(ii) Phenylbenzoquinone (PBQ). This test was carried out in a parallel manner to that employing acetic acid, […], except that the period over which the writhing/stretching movements were counted began 10 mins. after administration of the PBQ irritant, the latter being given at a dosage of 2.5 mg/kg and in a dose volume of 10 ml/kg.
(§3) The ED50 figures for the test compounds were calculated, using linear regression analysis, as the dose in the presence of which only half the number of writhes/stretches was induced compared with the controls.

female CD1 mice [2] = assay: Irritant-induced writhing test, acetic acid; conditions: s.c. 15 mins. prior to i.p. 0.6% acetic acid, Ex. compounds calculated as the peptide per se; for ED50: Mus musculus, 0.25 h
Excerpt: as §1, §2, §3

male TFW mice = assay: Antagonism by quaternary opioid (N-methylnalorphine) in acetic acid writhing test; conditions: for ED50 (mg/kg, s.c.) Saline control (b) / ED50: acetic acid writhing, saline i.p. 20 mins. before test compound s.c., Ex. compounds calculated as the peptide per se; for Dose ratio (a):(b): ratio of equiactive doses in presence and absence of N-methylnalorphine, calculated from the linear regression of the dose/response curves; for ED50: Mus musculus, 20 min, read-out: ED50 (mg/kg, s.c.) Saline control (b)
Excerpt: (3) The analgesia induced by the peptides in the writhing test upon peripheral (parenteral) administration is antagonised by parenteral administration of the quaternary opioid antagonist N-allyl-normorphine methiodide (N-methylnalorphine; Koczka et al, Acta Chim. Acad. Sci. Hung. 51:393, 1967), i.e. a higher dose of the peptide is required in the presence than in the absence of the opioid for the same effect. As penetration of the blood-brain barrier by the quaternary compound is minimal (c.f. Tavani et al, European J. Pharmacol. 59:151-154, 1979) both the peptide-induced analgesia and the antagonism thereof are effected at the peripheral level.
Groups of six male TFW mice (Tuck) received by intraperitoneal injection either N-methylnalorphine (16 mg/kg) or saline vehicle (0.85%) control at a volume of 10 ml/kg followed after 20 mins. by a solution of the test compound in saline (10 ml/kg, subcutaneous) and after a further 30 mins. by 0.6% acetic acid (25 ml/kg, intraperitoneal). The total number of writhes/stretches per group was then determined over the 5 min. period commencing 15 mins. after administration of the acetic acid. Using linear regression analysis the ED50 figures for the test compounds were calculated (defined as in (B) supra) together with the dose ratios therefor, i.e. the ratios of the dose of compound required for equiactive antinociceptive effect in respectively the presence and the absence of the quaternary compound.

marmosets = assay: Toxicology, 14-day subcutaneous administration, marmosets; conditions: s.c. daily for 14 days at 7.5, 15 or 30 mg/kg per day (as peptide per se)
Procedure: (§4) The diacetate product of Example 1 was administered subcutaneously to rats and marmosets as a solution in 0.85% (w/w) saline at a volume of 0.1 ml/100 g bodyweight. For each species the compound was given daily for 14 days at a dose (calculated as the peptide per se) selected from 7.5, 15 and 30 mg/kg bodyweight per day.

guinea pigs = assay: Antitussive activity (citric acid aerosol-induced cough); conditions: s.c. 30 minutes before 30% citric acid aerosol; calculated as the peptide per se; 95% confidence limits 0.04-2.6 mg/kg
Procedure: In this test procedure, a modification of that described by Boura et al., Br. J. Pharmac., 39/1 (1970) 225, guinea pigs were subjected to an aerosol containing 30% citric acid, 30 minutes after subcutaneous administration of test compound as a solution in 0.85% (w/w) saline, and the number of coughs during a 121/2-minute exposure counted.

rats = assay: Toxicology, 14-day subcutaneous administration, rats; conditions: rat; s.c. daily for 14 days at 7.5, 15 or 30 mg/kg per day (as peptide per se)
Procedure: as §4

Molecule	ED50 (mg/kg, s.c.), hotplate test (Male mice (CFLP strain))	ED50 (mg/kg, s.c.) antidiarrhoeal, 1.5 hrs. (Female Cobs Wistar rats)	ED50 (mg/kg, s.c.) antidiarrhoeal, 2.0 hrs. (Female Cobs Wistar rats)	ED50 (mg/kg, s.c.) antidiarrhoeal, 3.0 hrs. (Female Cobs Wistar rats)	ED50 (mg/kg, s.c.) PBQ writhing (female CD1 mice [1])	ED50 (mg/kg, s.c.) Acetic acid writhing (female CD1 mice [2])	ED50 (mg/kg, s.c.) Saline control (b) (male TFW mice)	Dose ratio (a):(b) (male TFW mice)	ED50 (Male mice (CFLP strain))	ED50 (female CD1 mice [2])	clinical signs observed (marmosets)	ED50 (dose required to reduce the number of coughs by 50%) (guinea pigs)	toxicity attributable to the compound (rats)	ED50 (female CD1 mice [1])	ED50 (male TFW mice)
N--AmidinoTyr--D--Met(Me)--Gly--Phe(4NO2)--Pro.NH2 chloride, hydrochloride [Ex. 4]	43.8 mg/kg	0.07 mg/kg	0.14 mg/kg	0.84 mg/kg	1.0 mg/kg	0.6 mg/kg	0.7 mg/kg	4.2							
H--Tyr--D--Met(Me)--Gly--Phe(4NO2)--Pro.NH2 chloride, hydrochloride [Ex. 2]	129.5 mg/kg	0.16 mg/kg	0.89 mg/kg	8.61 mg/kg	4.6 mg/kg	1.2 mg/kg	1.5 mg/kg	3.3							
CC(C)=CCN1CCC2(C)c3cc(O)ccc3CC1C2C (stereo not drawn) [Pentazocine, reference compound]									> 100 mg/kg	2.3 mg/kg					
N=C(N)NCCC[C@@H](NC(=O)[C@@H](N)Cc1ccc(O)cc1)C(=O)NCC(=O)N[C@@H](Cc1ccc([N+](=O)[O-])cc1)C(=O)N1CCC[C@H]1C(N)=O [Ex. 1, H--Tyr--D--Arg--Gly--Phe(4--NO2)--Pro.NH2 diacetate] (H-Y[dR]G[Phe(4-NO2)]P-NH2)	94.8 mg/kg	0.79 mg/kg	3.19 mg/kg	54.9 mg/kg	4.0 mg/kg	4.3 mg/kg	4.6 mg/kg	4.1			transient post-dose vomiting and salivation at 30 mg/kg and to a lesser extent at the lower doses	0.26 mg/kg	No toxicity attributable to the compound was seen		
CCC(=O)O[C@](Cc1ccccc1)(c1ccccc1)[C@H](C)CN(C)C [Dextropropoxyphene, reference compound]								1.0	25.9 mg/kg	4.2 mg/kg				2.6 mg/kg	6.8 mg/kg
COc1ccc2c(c1)c(CC(=O)O)c(C)n2C(=O)c1ccc(Cl)cc1 [Indomethacin, reference compound]									> 100 mg/kg					0.9 mg/kg	
CN1CC[C@]23c4c5ccc(O)c4O[C@H]2[C@@H](O)C=C[C@H]3[C@H]1C5 [Morphine, reference compound]									1.8 mg/kg					0.38 mg/kg	0.4 mg/kg
